From US20030208035A1, “Antifungal and/or antibacterial peptides, preparation methods, compositions containing same and methods of treating mammals and/or plants” (priority 2000, published 2003)
Bridges are numbered along the chain shown (N, C = ends). Where no end group is shown, it is not given here.

Test system: C. albicans
Type: cell-based, Candida albicans
Conditions: 24 h
Experimental: Candida yeasts (C. albicans, C. glabrata, C. dubliensis, C. tropicalis, C. kefyr, C. krusei and C. parapsilosis—donated by Dr. H. Koenig, Hôpital Civil, Strasbourg), fluconazole-resistant C. albicans (n^o245962, n^o2332, n^o246335 and n^o3552, donated by Drs. J.Meis and J. Mouton, University Hospital, Microbiology Department, Nijmegen, Netherlands), and Cryptoccocus neoformans (donated by Dr. H. Koenig, Hôpital Civil, Strasbourg) were seeded on Sabouraud-Cloramphenicol Agar slant gelose (Biomerieux) and left to incubate for 24 h at 30° C. (Candida sp.) and for 72 h at 37° C. (Cryptoccocus neoformans).
Some yeast colonies were placed in suspension in liquid Sabouraud medium (Biomerieux) to obtain a final concentration of 0.1 OD at 600 nm corresponding to 2.5.10^6 yeasts/ml.
The yeast suspension was adjusted to 5.10^3 yeast/ml in Sabouraud medium.
100 μl of peptide dilutions (concentration of 50 with 0.097 μg/ml peptide) were deposited in microtitration plates. After adding […] of yeast suspension with 5.10^3 yeast/ml i.e. 500 yeasts, the test plates were incubated 24 h at 30° C. (Candida) under slow shaking or 72 h at 37° C. (Cryptoccocus).
Determination of minimal inhibiting concentrations (MIC) was made by measuring absorbency at 600 nm using a spectrophotometer-microtitration plate reader. The MIC score was set at a growth inhibition rate of 50%.

Q: Which MIC does the source give for “DKLIGSCVWGAVNYTSNCNAECKRRGYKGGHCGSFLNVNCWCET (disulfide 7-32, 18-40, 22-42 (inferred)) [pEM35]” here?
A: The MIC was 1.56 µg/mL.
